The test system of assay [1] is H1299 cells expressing mutp53^R175H. Nature of the assay: Crystal violet viability assay, H1299. The format is cell-based. The following applies: 48 h; for Viability H1299: score 0-6 compared to positive control; for mutp53-specific effect on cell number, H1299: H1299 mutp53^R175H versus p53-null.
Description: Cell extracts were added to ELISA plates coated with the indicated antibodies to allow mutp53 to react with the peptides and antibodies. αp53-HRP Ab was used for assessment of p53 levels. Numbers represent ratio of absorbance between the PAb1620 and PAb240 samples. All reads were normalized to the control PAb241 reading of each extract. MCF7 (WTp53) and H1299-mutp53^A135V (tsp53) cells were used as positive controls for the WTp53 conformation (1620/240 ratio equals or exceeds 5:1). […] 96 well plates were coated with anti-p53 antibody, cell extracts containing p53 were reacted with oligonucleotides that contain a p53RE consensus binding site, labeled with biotin, in the presence or absence (NT) of test peptides. Streptavidin-HRP is used to quantify the amount of oligos in the well. TMB assay was performed to determine bound mutp53 levels (450nm). MCF7 and the H1299-mutp53^A135V(TS) cells serve as positive controls for WTp53. C.and D. - Bar graphs illustrating the effect of various selected peptides on mut-p53 dependent expression on cell viability. […] D, ES2 cells expressing endogenous mutp53 (blue bars) and ES2 cells knocked out for p53 by CRISPR construct (light blue bars). Cell lines were treated with selected peptides, Cis-platinum was used as positive control for cell death. 48 hours after treatment, cells were washed with PBS, and the remaining attached cells were stained with Crystal violet and washed 4 times with PBS. Stained cells were dissolved in 10% acetic acid and plates were taken for optical density measurement at 595nM.
This simple assay measures the total number of cells, thus reflecting the combination of both cell death and growth arrest effects. […] After 48 hours of treatment cells were stained with crystal violet and OD at 595nm was determined.
Values on the Y-axis reflect the number of cells in the treated wells, normalized to the non-treated samples (NT; red bars).
The test system of assay [2] is HOP62. Kind of assay: Crystal violet viability assay, HOP62. In kind it is cell-based, human. As to conditions: score 0-6 compared to positive control, 48 h. On the set-up: key: score 0- no effect-white; score 6- as or more effective than positive control- black. An excerpt: (§1) We also performed a similar analysis on ES2 ovarian cancer cells, which express endogenous mp53^S241F, compared to ES2 cells in which p53 was stably knocked out using CRISPR/Cas9 (ES2 p53KO Figure S1F), to control for specificity for mutp53 (Figure 2D). In ES2 cells, too, some of the peptides caused a significant reduction in cell numbers, more prominent in the mutp53 expressing cells than in their p53KO counterparts. […] Overall, we performed this analysis on several different mutp53-expressing human cancer cell lines, and the results are summarized in Table S3. Based on this comprehensive picture, we reduced the number of most promising candidate lead peptides to 30. These peptides were then synthesized with an 8 arginine C-terminal tail for enhanced delivery across cell membranes (pCAPs 130-160); for clarity, peptides are referred to by their original number, with an R for poly arginine (see Table S3).
(§2) Cells were cultured in 96 wells plates with 2500-4000 cells/well. Serial dilutions of different peptides were added and the plates incubated for additional 48 h at 37°C. Then medium was removed and cell viability was determined by staining the cells with crystal violet (0.05%) in methanol/PBS (1:5, v/v), for 10 min, followed by 3 washes with PBS. 10% acetic acid was added to each well for 10 min. OD was determined at 595 nm.

Assay [3] concerns mutp53 in SK3 cell extract. Kind of assay: ELISA of mutp53 DNA binding (p53RE oligonucleotide), SK3. As to conditions: score 0-6 compared to positive control. The format is biochemical, human. As for the experimental part:
Next, we assessed the ability of our selected peptides to restore sequence-specific DNA binding to mutp53. To that end we employed an ELISA kit (R&D) in which cell extracts containing p53 are reacted with a biotinylated p53RE oligonucleotide and then incubated in wells coated with anti-p53 antibody, which is expected to trap the p53 protein and its associated p53RE DNA. The amount of p53RE retained in each well via p53 binding is quantified by incubation with streptavidin-HRP. […] Again, extracts of MCF7 and H1299-tsp53^A135V cells served as positive controls for WTp53 DNA binding activity. […] Importantly, there was substantial overlap between the peptides that stabilized the WT conformation (Figure 2A) and those that increased specific DNA binding (Figure 2B), further reinforcing the conclusion that those peptides stabilize mutp53 in a functional state. This was not seen with the randomly selected peptides 1-6 (black bars).
For these experiments, a commercial p53/DNA binding kit of “R&D” (Cat-DYC1355-5 Lot-1273366FA) was used, in accordance with manufacturer guide lines. Briefly, 96 well plates we coated with anti-p53 antibody overnight. Cell extracts containing p53 are reacted with an oligonucleotide that contains a p53 consensus binding site (provided in the kit), labeled with Biotin, in the presence or absence (NT) of test peptides. WT p53 is expected to bind this DNA binding site as well as to the antibody coating the test wells of the plate. Excess p53 and oligos were washed away and streptavidin-HRP was used to quantify the amount of oligos in the well, which is proportional to the DNA bound by p53. TMB assay was performed to determine HRP (ES001-1L-K) levels (450nm).
In general terms: An ELISA detects its analyte on a solid surface through an enzyme-linked reagent.

For assay [4], the system named is p53 target genes in MDA231. Kind of assay: Induction of p53 target genes by qRT-PCR, MDA231. In kind it is cell-based, human. On the set-up: key: score 0- no effect-white; score 6- as or more effective than positive control- black. The following applies: score 0-6 compared to positive control. As for the experimental part:
RNA was obtained using Macherey-Nagel NucleoSpin RNA II Kit on cells pellet according to the manufacturer's protocol. Aliquots of 0.4-1 μg were reverse transcribed using Bio-RT 2000 (Bio-Lab) and random hexamer primers. QRT-PCR was performed on an ABI 7300 instrument (Applied Biosystems) using SYBR Green FastMix ROX (Quanta). RT-PCR primers (All primers sequences are presented 5′ to 3′): […]

The test system of assay [5] is H23. Nature of the assay: Crystal violet viability assay, H23. In kind it is cell-based, human. On the set-up: key: score 0- no effect-white; score 6- as or more effective than positive control- black. The following applies: score 0-6 compared to positive control, 48 h.
Description: as §1, §2

Assay [6] deals with MDA. Kind of assay: Crystal violet viability assay, MDA. In kind it is cell-based, human. The following applies: score 0-6 compared to positive control, 48 h.
Description: as §1, §2

Take “EVTFRHSVV [pCAP-1, randomly selected peptide used as inert comparison]”: the “Viability H1299” value in assay [1] is listed as 1. In addition, the “Viability HOP62” value in assay [2] is 3.

For the substance HANLHHT [pCAP-87], in assay [3], the “DNA SK3” value is listed as 2. Also, the “Viability H1299” value in assay [1] stood at 3. Besides, the “Viability HOP62” value in assay [2] worked out at 3. In assay [4], the “PCR MDA231” value came out at 4.

Consider HHPWTHHQRWS [pCAP-20], for which the “Viability H23” value in assay [5] was determined as 4.

With HSSHHHPVHSWN [pCAP-83], the “DNA SK3” value in assay [3] amounted to 2. In addition, in assay [1], the “mutp53-specific effect on cell number, H1299” value (from here on “mutp53-specific effect … H1299”) is listed as “mutp53-specific effect” and the “Viability H1299” value is recorded as 4.

IRGRIIR [pCAP-54]: in assay [1], the “mutp53-specific effect … H1299” value is reported as “mutp53-specific effect”. In addition, the “Viability MDA” value in assay [6] turned out to be 4.

With “IRGRIIRRRRRRRRR [pCAP-54R, pCAP-54 with poly arginine tail]”, the “Viability H1299” value in assay [1] came to 2. For the same substance, the “Viability HOP62” value in assay [2] is given as 2. In assay [6], the “Viability MDA” value is on record as 4.

Consider IRILMFLIGCGR [pCAP-23], for which the “Viability H1299” value in assay [1] stood at 3. Further, the “Viability HOP62” value in assay [2] amounted to 3.

Regarding “IRILMFLIGCGRRRRRRRRR [pCAP-23R, pCAP-23 with poly arginine tail]”, the “Viability H1299” value in assay [1] came out at 3. Besides, in assay [2], the “Viability HOP62” value came to 3.

For the substance LHSKTLVL [pCAP-17], in assay [3], the “DNA SK3” value came out at 3.

Consider LRCLLLLIGRVG [pCAP-24], for which, in assay [3], the “DNA SK3” value came out at 3. Also, in assay [1], the “mutp53-specific effect … H1299” value is on record as “mutp53-specific effect”.

For “LRCLLLLIGRVGRRRRRRRR [pCAP-24R, pCAP-24 with poly arginine tail]”, the “DNA SK3” value in assay [3] is on record as 3. Further, the “Viability H1299” value in assay [1] is 4. Moreover, the “Viability MDA” value in assay [6] turned out to be 4.

Take SFILFIRRGRLG [pCAP-60]: in assay [1], the “mutp53-specific effect … H1299” value is given as “mutp53-specific effect” and the “Viability H1299” value was found to be 2. Further, the “Viability HOP62” value in assay [2] turned out to be 3. In assay [4], the “PCR MDA231” value was 2.

Turning to “SFILFIRRGRLGRRRRRRRRR [pCAP-60R, pCAP-60 with poly arginine tail]”, the “DNA SK3” value in assay [3] was found to be 2. Moreover, in assay [1], the “Viability H1299” value was 2. The “Viability HOP62” value in assay [2] was 2. Moreover, the “Viability H23” value in assay [5] stood at 4.

In the case of WNHHHSTPHPAH [pCAP-97], the “DNA SK3” value in assay [3] worked out at 2. For the same substance, in assay [1], the “mutp53-specific effect … H1299” value is “mutp53-specific effect” and the “Viability H1299” value worked out at 3. Also, the “Viability HOP62” value in assay [2] turned out to be 4. The “Viability MDA” value in assay [6] worked out at 4. In assay [4], the “PCR MDA231” value was found to be 3.

Consider “WNHHHSTPHPAHRRRRRR [pCAP-97R, pCAP-97 with poly arginine tail]”, for which, in assay [3], the “DNA SK3” value was 3. In addition, in assay [1], the “Viability H1299” value was 4. Besides, the “Viability HOP62” value in assay [2] was 4. Further, in assay [6], the “Viability MDA” value worked out at 4. In addition, in assay [4], the “PCR MDA231” value is on record as 3.

As to YPTQGHLR [pCAP-36], the “DNA SK3” value in assay [3] turned out to be 2. In addition, in assay [1], the “mutp53-specific effect … H1299” value is on record as “mutp53-specific effect” and the “Viability H1299” value was found to be 2. Further, in assay [2], the “Viability HOP62” value is given as 3. Also, the “Viability MDA” value in assay [6] is 4.

Regarding YRRLLIGMMWRRRRRRRRR [pCAP-68], in assay [1], the “Viability H1299” value was 3. Besides, in assay [2], the “Viability HOP62” value amounted to 5. Further, the “Viability MDA” value in assay [6] came out at 4. The “PCR MDA231” value in assay [4] was 2.

Turning to “myr-PRVLPSPHTIHPSQYP [pCAP-229, myristoylated peptide, similarity to HIPK2]”, the “DNA SK3” value in assay [3] worked out at 3. In assay [1], the “Viability H1299” value is 4. Further, the “Viability HOP62” value in assay [2] was 4. Further, in assay [5], the “Viability H23” value stood at 3. Further, in assay [4], the “PCR MDA231” value was determined as 3.

With myr-RRIRDPRILLLHFD [pCAP-325], in assay [3], the “DNA SK3” value stood at 3. Further, the “Viability H1299” value in assay [1] amounted to 5. The “Viability HOP62” value in assay [2] is reported as 4. Also, the “Viability MDA” value in assay [6] was 4. Further, in assay [5], the “Viability H23” value amounted to 4. Besides, the “PCR MDA231” value in assay [4] was 6.

Turning to myr-RRKHNKHRPEPDSDER [pCAP-221], the “DNA SK3” value in assay [3] was determined as 3. In assay [1], the “Viability H1299” value is on record as 2. Also, in assay [2], the “Viability HOP62” value was 5. Besides, the “Viability MDA” value in assay [6] was determined as 5. Besides, the “Viability H23” value in assay [5] amounted to 6. Moreover, the “PCR MDA231” value in assay [4] amounted to 4.

Take “myr-RRKILFIRLMHNKH [pCAP-227, myristoylated peptide, similarity to GAS2]”: in assay [3], the “DNA SK3” value was found to be 3. In addition, the “Viability H1299” value in assay [1] came out at 5. Besides, in assay [2], the “Viability HOP62” value worked out at 6. Further, the “Viability MDA” value in assay [6] is 3. The “Viability H23” value in assay [5] came to 3. For the same substance, the “PCR MDA231” value in assay [4] turned out to be 3.

Regarding myr-RRLIVRILKLPNPPER [pCAP-242], the “DNA SK3” value in assay [3] is given as 4. Besides, in assay [1], the “Viability H1299” value is 5. The “Viability HOP62” value in assay [2] amounted to 5. Besides, the “Viability MDA” value in assay [6] stood at 3. Also, in assay [5], the “Viability H23” value is on record as 6. Further, in assay [4], the “PCR MDA231” value was 2.

(Values after article PMC4914250, “Cancer therapeutic approach based on conformational stabilization of mutant p53 protein by small peptides” (Oncotarget, 2016).)
